Source: PMC13278354, “The competitive interplay of 12‐oxophytodienoic acid (OPDA), protein thiols, and glutathione” (The Febs Journal, 2026)

Assays:
[1] = molecular target: T1, TRX-f1 (Arabidopsis thaliana, UniProt Q9XFH8); assay: intrinsic tryptophan fluorescence quenching; type: binding; details: covalent; 15 uM reduced protein, 150 uM OPDA, 3 h, RT, 50 mM KPi pH 7.2
T1 construct: gene At3g02730; recombinant His-tagged, without transit peptide, E. coli NiCo21(DE3)
T1 sequence (Q9XFH8 58-178): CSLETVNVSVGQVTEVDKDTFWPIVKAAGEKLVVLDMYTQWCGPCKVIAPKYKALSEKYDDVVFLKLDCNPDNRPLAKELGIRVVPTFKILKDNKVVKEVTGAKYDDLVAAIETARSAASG

[2] = molecular target: T2, TRX-m4 (Arabidopsis thaliana, UniProt Q9SEU6); assay: intrinsic tryptophan fluorescence quenching; type: binding; details: covalent; 15 uM reduced protein, 150 uM OPDA, 3 h, RT, 50 mM KPi pH 7.2
T2 construct: gene At3g15360; recombinant His-tagged, without transit peptide, E. coli NiCo21(DE3)
T2 sequence (Q9SEU6 83-193): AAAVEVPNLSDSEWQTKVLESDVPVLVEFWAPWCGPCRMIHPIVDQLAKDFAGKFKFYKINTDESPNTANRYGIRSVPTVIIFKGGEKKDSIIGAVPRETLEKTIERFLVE

[3] = molecular target: T2, TRX-m4; assay: insulin reduction assay (turbidity, A650); type: biochemical; details: covalent; 20 uM TRX pre-incubated with 80 uM OPDA, RT; assay pH 7.2, 1 mM DTT
[4] = molecular target: T3, TRX-h3 (Arabidopsis thaliana, UniProt Q42403); assay: insulin reduction assay (turbidity, A650); type: biochemical; details: covalent; 20 uM TRX pre-incubated with 80 uM OPDA, RT; assay pH 7.2, 1 mM DTT
T3 construct: gene TRX3; recombinant His-tagged, E. coli NiCo21(DE3); cytosolic, no transit peptide
T3 sequence (Q42403 1-118): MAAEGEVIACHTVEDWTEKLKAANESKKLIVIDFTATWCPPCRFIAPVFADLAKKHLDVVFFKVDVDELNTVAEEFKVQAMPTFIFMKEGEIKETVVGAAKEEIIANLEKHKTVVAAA

[5] = molecular target: T1, TRX-f1; assay: insulin reduction assay (turbidity, A650); type: biochemical; details: covalent; 20 uM TRX pre-incubated with 80 uM OPDA, RT; assay pH 7.2, 1 mM DTT

## CC/C=C\C[C@@H]1C(=O)C=C[C@@H]1CCCCCCCC(=O)O [OPDA]
[1]
  change of maximal fluorescence intensity: –14.5 relative units
[2]
  change of maximal fluorescence intensity: –16.3 relative units
[3]
  residual activity: 71%
[4]
  residual activity: 47%
[5]
  residual activity: 67%
